{"source": "patent US8551937B2", "about": "“Peptide having an extending action for half-life of object peptide in plasma” (priority 2008, dated 2013)", "key": {"[1]": {"assay": "in vivo", "conditions": "rat; for AUC(0-inf) / C0 / half-life / Cmax / Tmax: male, SD, 0.1 mg/kg", "description": "Changes in ANP immunoreactivity concentration in plasma when a native ANP and a chimeric peptide (chimeric ANP) to which a half-life-extension peptide was bestowed were administered into vein of rats were investigated.\nAs a test system, male rats of an SD strain of 7 weeks age (provided from Nippon Charles River) were subjected to the experiment where one group comprised three rats. […] At that time, a rabbit polyclonal antibody (#8) recognizing a ring part of ANP was used as an antibody and ^125I-[Tyr^28] α-hANP was used as a labeling compound.\nPharmacokinetic parameters were calculated from the resulting changes in immunoreactivity concentrations in plasma. At that time, WinNonlin Professional Ver. 4.0.1 (manufactured by Pharsight Corporation, U.S.A.) was used as the analytical software. Method for the calculation of each parameter is mentioned as follows.\nConcentration at time 0 (C0; extrapolated value, ng/mL), area under the curve for concentration in plasma vs. time (AUC; ng.min/mL) and quenching half-life (T½; minute(s)) were calculated as follows. C0 was calculated as a value at time by means of extrapolation from the changes in immunoreactivity concentration in plasma at each blood collection period. AUC was calculated by a trapezoidal method using the immunoreactivity concentrations in plasma at all measuring points (t) and an extrapolated value until the infinitive time was determined. T½ was calculated by means of a least-squares method from the inclination of a straight line connecting several points in a disappearing phase of the immunoreactivity concentration in plasma. In the case of a subcutaneous administration, C0 was not determined but the maximum concentration in plasma (Cmax; ng/mL) and the time reaching the maximum concentration in plasma (Tmax; min) were determined."}, "[2]": {"assay": "Motilin immunoreactivity concentration in plasma, half-life after intravenous administration (Example 8)", "conditions": "rat, in vivo, iv, 10 nmol/kg", "description": "The experiment was carried out using rats into which polyethylene tube (PE-50 manufactured by Clay Adams) was inserted into thigh artery under an anesthetized condition with Nembutal. As to a test system, male SD strain rats (Nippon Charles River) of 7 weeks age were used where one group comprised 3 rats. Human motilin or a derivative thereof in a dose of 10 nmol/kg was administered into tail vein of the rat and the blood before the administration and until 60 minutes after the administration was periodically collected by a polyethylene tube inserted into the thigh artery. To the collected blood were added EDTA (manufactured by Dojin Laboratories) and aprotinin (manufactured by Bayer) as a stabilizer and an anti-coagulant, respectively and the plasma was separated therefrom by centrifugal separation. Motilin immunoreactivity concentration in plasma was measured by a competitive radioimmunoassay (RIA) (FIG. 8). At that time, a rabbit polyclonal antibody (#870623) which specifically recognizes the amino acid numbers 1 to 12 of native motilin shown by SEQ ID No: 102 was used as an antibody and, as a labeled compound, ^125I-[Tyr^7] human motilin was used."}}, "note": "Where a SMILES comes first, the peptide text is derived from it. Bridges are numbered along the chain shown (N, C = ends)."}
{"smiles": "CC[C@H](C)[C@@H]1NC(=O)[C@H](CCCNC(=N)N)NC(=O)[C@H](CC(=O)O)NC(=O)[C@H](CCSC)NC(=O)[C@H](CCCNC(=N)N)NC(=O)CNC(=O)CNC(=O)[C@H](Cc2ccccc2)NC(=O)[C@@H](NC(=O)[C@@H](NC(=O)[C@H](CCC(N)=O)NC(=O)[C@H](CCC(N)=O)NC(=O)[C@H](CCCNC(=N)N)NC(=O)[C@H](CCCCN)NC(=O)[C@H](CCC(=O)O)NC(=O)[C@H](CO)NC(=O)[C@H](CCCCN)NC(=O)[C@H](CCCCN)NC(=O)[C@@H]2CCCN2C(=O)[C@@H]2CCCN2C(=O)[C@H](C)NC(=O)[C@H](CCCCN)NC(=O)[C@H](CC(C)C)NC(=O)[C@H](CCC(N)=O)NC(=O)[C@@H]2CCCN2C(=O)[C@@H](N)CCCNC(=N)N)C(C)C)CSSC[C@@H](C(=O)N[C@@H](CC(N)=O)C(=O)N[C@@H](CO)C(=O)N[C@@H](Cc2ccccc2)C(=O)N[C@@H](CCCNC(=N)N)C(=O)N[C@@H](Cc2ccc(O)cc2)C(=O)O)NC(=O)CNC(=O)[C@H](CC(C)C)NC(=O)CNC(=O)[C@H](CO)NC(=O)[C@H](CCC(N)=O)NC(=O)[C@H](C)NC(=O)CNC1=O", "note": "[Chimeric ANP (C)] (H-RPQLKAPPKKSEKRQQVCFGGRMDRIGAQSGLGCNSFRY-OH; disulfide 18-34; N-terminus and C-terminus assumed)", "values": [{"measurement": "AUC(0-inf)", "setting": "[1]; iv", "value": 148, "unit": "ng·h/mL"}, {"measurement": "C0", "setting": "[1]; iv", "value": "1530 ± 442", "unit": "ng/mL"}, {"measurement": "half-life", "setting": "[1]; iv", "value": "27.2 ± 3.8", "unit": "min"}, {"measurement": "AUC(0-inf)", "setting": "[1]; sc", "value": 56.7, "unit": "ng·h/mL"}, {"measurement": "Cmax", "setting": "[1]; sc", "value": "55.1 ± 10.3", "unit": "ng/mL"}, {"measurement": "Tmax", "setting": "[1]; sc", "value": 20, "unit": "min"}, {"measurement": "half-life", "setting": "[1]; sc", "value": "37.8 ± 7.8", "unit": "min"}, {"measurement": "concentration in plasma as compared with the native ANP", "setting": "[1]; iv", "value": "rising concentration in plasma"}, {"measurement": "concentration in plasma as compared with the native ANP", "setting": "[1]; sc", "value": "rising concentration in plasma"}]}
{"smiles": "CC[C@H](C)[C@H](NC(=O)[C@@H]1CCCN1C(=O)[C@@H](NC(=O)[C@@H](N)Cc1ccccc1)C(C)C)C(=O)N[C@@H](Cc1ccccc1)C(=O)N[C@H](C(=O)N[C@@H](Cc1ccc(O)cc1)C(=O)NCC(=O)N[C@@H](CCC(=O)O)C(=O)N[C@@H](CC(C)C)C(=O)N[C@@H](CCC(N)=O)C(=O)N[C@@H](CCCNC(=N)N)C(=O)N[C@H](C(=O)N[C@@H](CCC(N)=O)C(=O)N[C@@H](CCC(N)=O)C(=O)N[C@@H](CCCNC(=N)N)C(=O)N[C@@H](CCCCN)C(=O)N[C@@H](CCC(=O)O)C(=O)N[C@@H](CO)C(=O)NCC(=O)N[C@@H](CCCCN)C(=O)N[C@@H](CCCCN)C(=O)N1CCC[C@H]1C(=O)N1CCC[C@H]1C(=O)N[C@@H](C)C(=O)N[C@@H](CCCCN)C(=O)N[C@@H](CC(C)C)C(=O)N[C@@H](CCC(N)=O)C(=O)N1CCC[C@H]1C(=O)N[C@@H](CCCNC(=N)N)C(=O)O)C(C)C)[C@@H](C)O", "note": "[Chimeric motilin (I)(MG-i19G)] (H-FVPIFTYGELQRVQQRKESGKKPPAKLQPR-OH; N-terminus and C-terminus assumed)", "values": [{"measurement": "half-life", "setting": "[2]; male, SD", "value": 11.6, "unit": "min"}]}
{"smiles": "CC[C@H](C)[C@H](NC(=O)[C@@H]1CCCN1C(=O)[C@@H](NC(=O)[C@@H](N)Cc1ccccc1)C(C)C)C(=O)N[C@@H](Cc1ccccc1)C(=O)N[C@H](C(=O)N[C@@H](Cc1ccc(O)cc1)C(=O)NCC(=O)N[C@@H](CCC(=O)O)C(=O)N[C@@H](CC(C)C)C(=O)N[C@@H](CCC(N)=O)C(=O)N[C@@H](CCCNC(=N)N)C(=O)N[C@H](C(=O)N[C@@H](CCC(N)=O)C(=O)N[C@@H](CCC(N)=O)C(=O)N[C@@H](CCCNC(=N)N)C(=O)N[C@@H](CCCCN)C(=O)NCC(=O)NCC(=O)N[C@@H](CCC(=O)O)C(=O)N[C@@H](CO)C(=O)N[C@@H](CCCCN)C(=O)N[C@@H](CCCCN)C(=O)N1CCC[C@H]1C(=O)N1CCC[C@H]1C(=O)N[C@@H](C)C(=O)N[C@@H](CCCCN)C(=O)N[C@@H](CC(C)C)C(=O)N[C@@H](CCC(N)=O)C(=O)N1CCC[C@H]1C(=O)N[C@@H](CCCNC(=N)N)C(=O)O)C(C)C)[C@@H](C)O", "note": "[Chimeric motilin (II)(MG-i17G2)] (H-FVPIFTYGELQRVQQRKGGESKKPPAKLQPR-OH; N-terminus and C-terminus assumed)", "values": [{"measurement": "half-life", "setting": "[2]; male, SD", "value": 11.5, "unit": "min"}]}
{"smiles": "CC[C@H](C)[C@H](NC(=O)[C@@H]1CCCN1C(=O)[C@@H](NC(=O)[C@@H](N)Cc1ccccc1)C(C)C)C(=O)N[C@@H](Cc1ccccc1)C(=O)N[C@H](C(=O)N[C@@H](Cc1ccc(O)cc1)C(=O)NCC(=O)N[C@@H](CCC(=O)O)C(=O)N[C@@H](CC(C)C)C(=O)N[C@@H](CCC(N)=O)C(=O)N[C@@H](CCCNC(=N)N)C(=O)N[C@H](C(=O)N[C@@H](CCC(N)=O)C(=O)N[C@@H](CCC(N)=O)C(=O)N[C@@H](CCCNC(=N)N)C(=O)N[C@@H](CCCCN)C(=O)NCC(=O)NCC(=O)N[C@@H](CCC(=O)O)C(=O)N[C@@H](CO)C(=O)NCC(=O)N[C@@H](CCCCN)C(=O)N[C@@H](CCCCN)C(=O)N1CCC[C@H]1C(=O)N1CCC[C@H]1C(=O)N[C@@H](C)C(=O)N[C@@H](CCCCN)C(=O)N[C@@H](CC(C)C)C(=O)N[C@@H](CCC(N)=O)C(=O)N1CCC[C@H]1C(=O)N[C@@H](CCCNC(=N)N)C(=O)O)C(C)C)[C@@H](C)O", "note": "[Chimeric motilin (III) (MG-i17G2-19iG)] (H-FVPIFTYGELQRVQQRKGGESGKKPPAKLQPR-OH; N-terminus and C-terminus assumed)", "values": [{"measurement": "half-life", "setting": "[2]; male, SD", "value": 10.7, "unit": "min"}]}
{"smiles": "CC[C@H](C)[C@H](NC(=O)[C@@H]1CCCN1C(=O)[C@@H](NC(=O)[C@@H](N)Cc1ccccc1)C(C)C)C(=O)N[C@@H](Cc1ccccc1)C(=O)N[C@H](C(=O)N[C@@H](Cc1ccc(O)cc1)C(=O)NCC(=O)N[C@@H](CCC(=O)O)C(=O)N[C@@H](CC(C)C)C(=O)N[C@@H](CCC(N)=O)C(=O)N[C@@H](CCCNC(=N)N)C(=O)N[C@H](C(=O)N[C@@H](CCC(N)=O)C(=O)N[C@@H](CCC(N)=O)C(=O)N[C@@H](CCCNC(=N)N)C(=O)N[C@@H](CCCCN)C(=O)N[C@@H](CCC(=O)O)C(=O)N[C@@H](CO)C(=O)N[C@@H](CCCCN)C(=O)N[C@@H](CCCCN)C(=O)N[C@@H](C)C(=O)N[C@@H](CCCCN)C(=O)N[C@@H](CC(C)C)C(=O)N[C@@H](CCC(N)=O)C(=O)N1CCC[C@H]1C(=O)N[C@@H](CCCNC(=N)N)C(=O)O)C(C)C)[C@@H](C)O", "note": "[Chimeric motilin (IV)(MG-dPP)] (H-FVPIFTYGELQRVQQRKESKKAKLQPR-OH; N-terminus and C-terminus assumed)", "values": [{"measurement": "half-life", "setting": "[2]", "value": 7.73, "unit": "min"}]}
{"smiles": "CC[C@H](C)[C@H](NC(=O)[C@H](CCSC)NC(=O)[C@H](CCCCN)NC(=O)[C@H](CCCCN)NC(=O)[C@H](CO)NC(=O)[C@H](CCC(=O)O)NC(=O)[C@H](CCCCN)NC(=O)[C@H](CCCNC(=N)N)NC(=O)[C@H](CCC(N)=O)NC(=O)[C@H](CCC(N)=O)NC(=O)[C@@H](NC(=O)[C@H](CCCNC(=N)N)NC(=O)[C@H](CCC(N)=O)NC(=O)[C@H](CC(C)C)NC(=O)[C@H](CCC(=O)O)NC(=O)CNC(=O)[C@H](Cc1ccc(O)cc1)NC(=O)[C@@H](NC(=O)[C@H](Cc1ccccc1)NC(=O)[C@@H](NC(=O)[C@@H]1CCCN1C(=O)[C@@H](NC(=O)[C@@H](N)Cc1ccccc1)C(C)C)[C@@H](C)CC)[C@@H](C)O)C(C)C)C(=O)N[C@H](C(=O)N[C@H](C(=O)N[C@@H](CCCNC(=N)N)C(=O)O)[C@@H](C)CC)[C@@H](C)O", "note": "[Chimeric motilin (IX)(MG-dPPS)] (H-FVPIFTYGELQRVQQRKESKKMITIR-OH; N-terminus and C-terminus assumed)", "values": [{"measurement": "half-life", "setting": "[2]; male, SD", "value": 4.39, "unit": "min"}]}
{"smiles": "CC[C@H](C)[C@@H]1NC(=O)[C@H](CCCNC(=N)N)NC(=O)[C@H](CC(=O)O)NC(=O)[C@H](CCSC)NC(=O)[C@H](CCCNC(=N)N)NC(=O)CNC(=O)CNC(=O)[C@H](Cc2ccccc2)NC(=O)[C@@H](NC(=O)[C@H](CO)NC(=O)[C@H](CO)NC(=O)[C@H](CCCNC(=N)N)NC(=O)[C@H](CCCNC(=N)N)NC(=O)[C@H](CC(C)C)NC(=O)[C@@H](N)CO)CSSC[C@@H](C(=O)N[C@@H](CC(N)=O)C(=O)N[C@@H](CO)C(=O)N[C@@H](Cc2ccccc2)C(=O)N[C@@H](CCCNC(=N)N)C(=O)N[C@@H](Cc2ccc(O)cc2)C(=O)O)NC(=O)CNC(=O)[C@H](CC(C)C)NC(=O)CNC(=O)[C@H](CO)NC(=O)[C@H](CCC(N)=O)NC(=O)[C@H](C)NC(=O)CNC1=O", "note": "[Native ANP, reference compound]", "values": [{"measurement": "AUC(0-inf)", "setting": "[1]; iv", "value": 25, "unit": "ng·h/mL"}, {"measurement": "C0", "setting": "[1]; iv", "value": "993 ± 208", "unit": "ng/mL"}, {"measurement": "AUC(0-inf)", "setting": "[1]; sc", "value": 8.92, "unit": "ng·h/mL"}, {"measurement": "Cmax", "setting": "[1]; sc", "value": "22.3 ± 5.3", "unit": "ng/mL"}, {"measurement": "Tmax", "setting": "[1]; sc", "value": 8.3, "unit": "min"}]}
